Calls of active or inactive are those of the source.
Key:
[1] = biological target: T1, Lysosomal acid glucosylceramidase (Homo sapiens, UniProt P04062); assay: Dose response cell-based high throughput screening assay to identify enhancers of beta-glucosidase activity. [Related pubchem assays: 784 ]; type: functional
T1 sequence (P04062 whole entry): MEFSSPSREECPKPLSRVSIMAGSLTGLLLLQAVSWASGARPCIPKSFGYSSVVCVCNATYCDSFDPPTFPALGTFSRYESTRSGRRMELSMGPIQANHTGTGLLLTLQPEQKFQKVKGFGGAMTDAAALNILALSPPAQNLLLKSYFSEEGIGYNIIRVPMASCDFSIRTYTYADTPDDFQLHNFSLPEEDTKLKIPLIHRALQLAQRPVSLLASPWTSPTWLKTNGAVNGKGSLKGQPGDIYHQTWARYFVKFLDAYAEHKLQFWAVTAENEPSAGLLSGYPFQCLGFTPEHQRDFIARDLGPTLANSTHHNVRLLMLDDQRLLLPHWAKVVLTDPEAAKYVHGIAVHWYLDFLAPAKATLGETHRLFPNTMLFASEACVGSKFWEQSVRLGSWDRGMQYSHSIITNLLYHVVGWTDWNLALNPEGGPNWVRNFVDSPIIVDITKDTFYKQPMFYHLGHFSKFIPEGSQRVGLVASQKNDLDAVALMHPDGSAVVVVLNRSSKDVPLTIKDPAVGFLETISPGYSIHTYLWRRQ

[2] = biological target: Peroxisome proliferator-activated receptor gamma/Nuclear receptor coactivator 2 (Homo sapiens, UniProt P37231); type: functional;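 also: agonist potency for raising coactivator recruitment to the receptor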
Sequence of Peroxisome proliferator-activated receptor gamma/Nuclear receptor coactivator 2 (P37231 whole entry): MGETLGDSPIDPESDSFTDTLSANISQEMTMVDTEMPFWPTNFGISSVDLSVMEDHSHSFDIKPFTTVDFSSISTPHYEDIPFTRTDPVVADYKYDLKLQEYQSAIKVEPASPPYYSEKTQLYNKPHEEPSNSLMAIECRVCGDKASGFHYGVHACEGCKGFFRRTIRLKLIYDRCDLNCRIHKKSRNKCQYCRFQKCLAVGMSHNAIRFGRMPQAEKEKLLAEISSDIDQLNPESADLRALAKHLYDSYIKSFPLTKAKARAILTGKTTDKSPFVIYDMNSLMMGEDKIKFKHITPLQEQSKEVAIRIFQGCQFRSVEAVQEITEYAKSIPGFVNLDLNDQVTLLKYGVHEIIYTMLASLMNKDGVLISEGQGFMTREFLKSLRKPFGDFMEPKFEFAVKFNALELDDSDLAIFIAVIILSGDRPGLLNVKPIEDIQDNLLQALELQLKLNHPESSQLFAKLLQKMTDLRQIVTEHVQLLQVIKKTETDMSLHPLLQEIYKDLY
Sequence of Peroxisome proliferator-activated receptor gamma/Nuclear receptor coactivator 2 (Q15596 whole entry, further chain): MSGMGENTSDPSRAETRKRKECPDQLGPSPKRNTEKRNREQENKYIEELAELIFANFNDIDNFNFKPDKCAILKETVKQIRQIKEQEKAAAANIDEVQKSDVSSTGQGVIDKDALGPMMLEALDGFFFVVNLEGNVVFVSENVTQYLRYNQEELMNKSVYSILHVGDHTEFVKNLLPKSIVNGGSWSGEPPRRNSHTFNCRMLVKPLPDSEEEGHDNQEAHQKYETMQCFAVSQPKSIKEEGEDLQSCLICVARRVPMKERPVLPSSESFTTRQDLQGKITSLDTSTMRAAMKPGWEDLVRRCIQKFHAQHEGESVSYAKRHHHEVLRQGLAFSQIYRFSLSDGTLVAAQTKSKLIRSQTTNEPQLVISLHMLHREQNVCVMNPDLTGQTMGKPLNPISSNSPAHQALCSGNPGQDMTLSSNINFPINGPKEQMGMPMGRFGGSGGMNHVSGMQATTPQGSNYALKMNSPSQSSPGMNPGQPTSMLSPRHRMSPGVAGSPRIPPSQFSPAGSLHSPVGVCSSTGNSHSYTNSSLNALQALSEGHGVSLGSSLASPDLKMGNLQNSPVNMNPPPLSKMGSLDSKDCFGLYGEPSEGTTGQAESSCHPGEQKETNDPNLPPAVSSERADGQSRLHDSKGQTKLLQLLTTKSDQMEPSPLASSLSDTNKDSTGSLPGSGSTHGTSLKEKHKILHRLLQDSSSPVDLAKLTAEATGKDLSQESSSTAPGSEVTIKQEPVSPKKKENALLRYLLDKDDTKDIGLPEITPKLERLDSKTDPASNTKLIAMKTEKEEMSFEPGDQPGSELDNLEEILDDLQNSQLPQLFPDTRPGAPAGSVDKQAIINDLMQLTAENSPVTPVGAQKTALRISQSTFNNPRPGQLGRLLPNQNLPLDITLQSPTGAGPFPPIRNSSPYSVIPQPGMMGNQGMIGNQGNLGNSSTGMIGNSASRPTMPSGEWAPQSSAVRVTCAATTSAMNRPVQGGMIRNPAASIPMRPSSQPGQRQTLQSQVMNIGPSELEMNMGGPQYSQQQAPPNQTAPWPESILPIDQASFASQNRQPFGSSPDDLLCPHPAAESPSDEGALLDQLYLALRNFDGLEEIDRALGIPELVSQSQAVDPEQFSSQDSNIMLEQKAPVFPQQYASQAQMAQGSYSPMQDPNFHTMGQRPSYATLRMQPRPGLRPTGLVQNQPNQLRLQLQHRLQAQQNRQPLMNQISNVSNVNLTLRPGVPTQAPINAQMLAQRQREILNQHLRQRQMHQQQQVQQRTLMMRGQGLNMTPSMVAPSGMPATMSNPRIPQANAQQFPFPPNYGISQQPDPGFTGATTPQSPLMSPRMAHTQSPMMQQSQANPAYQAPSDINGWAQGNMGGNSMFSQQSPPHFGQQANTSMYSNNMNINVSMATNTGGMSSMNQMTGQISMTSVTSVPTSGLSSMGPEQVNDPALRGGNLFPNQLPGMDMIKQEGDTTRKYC

[3] = biological target: Peroxisome proliferator-activated receptor gamma/Nuclear receptor coactivator 1 (Homo sapiens, UniProt P37231); type: functional;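 also: agonist potency as compounds enhance coactivator SRC-1 recruitment to PPARgamma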
[4] = biological target: Peroxisome proliferator-activated receptor gamma/Nuclear receptor coactivator 3 (Homo sapiens, UniProt P37231); type: functional;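 also: agonist potency for raising coactivator recruitment to the receptor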
Sequence of Peroxisome proliferator-activated receptor gamma/Nuclear receptor coactivator 3 (P37231 whole entry): as the sequence (P37231 whole entry) above
Sequence of Peroxisome proliferator-activated receptor gamma/Nuclear receptor coactivator 3 (Q9Y6Q9 whole entry, further chain): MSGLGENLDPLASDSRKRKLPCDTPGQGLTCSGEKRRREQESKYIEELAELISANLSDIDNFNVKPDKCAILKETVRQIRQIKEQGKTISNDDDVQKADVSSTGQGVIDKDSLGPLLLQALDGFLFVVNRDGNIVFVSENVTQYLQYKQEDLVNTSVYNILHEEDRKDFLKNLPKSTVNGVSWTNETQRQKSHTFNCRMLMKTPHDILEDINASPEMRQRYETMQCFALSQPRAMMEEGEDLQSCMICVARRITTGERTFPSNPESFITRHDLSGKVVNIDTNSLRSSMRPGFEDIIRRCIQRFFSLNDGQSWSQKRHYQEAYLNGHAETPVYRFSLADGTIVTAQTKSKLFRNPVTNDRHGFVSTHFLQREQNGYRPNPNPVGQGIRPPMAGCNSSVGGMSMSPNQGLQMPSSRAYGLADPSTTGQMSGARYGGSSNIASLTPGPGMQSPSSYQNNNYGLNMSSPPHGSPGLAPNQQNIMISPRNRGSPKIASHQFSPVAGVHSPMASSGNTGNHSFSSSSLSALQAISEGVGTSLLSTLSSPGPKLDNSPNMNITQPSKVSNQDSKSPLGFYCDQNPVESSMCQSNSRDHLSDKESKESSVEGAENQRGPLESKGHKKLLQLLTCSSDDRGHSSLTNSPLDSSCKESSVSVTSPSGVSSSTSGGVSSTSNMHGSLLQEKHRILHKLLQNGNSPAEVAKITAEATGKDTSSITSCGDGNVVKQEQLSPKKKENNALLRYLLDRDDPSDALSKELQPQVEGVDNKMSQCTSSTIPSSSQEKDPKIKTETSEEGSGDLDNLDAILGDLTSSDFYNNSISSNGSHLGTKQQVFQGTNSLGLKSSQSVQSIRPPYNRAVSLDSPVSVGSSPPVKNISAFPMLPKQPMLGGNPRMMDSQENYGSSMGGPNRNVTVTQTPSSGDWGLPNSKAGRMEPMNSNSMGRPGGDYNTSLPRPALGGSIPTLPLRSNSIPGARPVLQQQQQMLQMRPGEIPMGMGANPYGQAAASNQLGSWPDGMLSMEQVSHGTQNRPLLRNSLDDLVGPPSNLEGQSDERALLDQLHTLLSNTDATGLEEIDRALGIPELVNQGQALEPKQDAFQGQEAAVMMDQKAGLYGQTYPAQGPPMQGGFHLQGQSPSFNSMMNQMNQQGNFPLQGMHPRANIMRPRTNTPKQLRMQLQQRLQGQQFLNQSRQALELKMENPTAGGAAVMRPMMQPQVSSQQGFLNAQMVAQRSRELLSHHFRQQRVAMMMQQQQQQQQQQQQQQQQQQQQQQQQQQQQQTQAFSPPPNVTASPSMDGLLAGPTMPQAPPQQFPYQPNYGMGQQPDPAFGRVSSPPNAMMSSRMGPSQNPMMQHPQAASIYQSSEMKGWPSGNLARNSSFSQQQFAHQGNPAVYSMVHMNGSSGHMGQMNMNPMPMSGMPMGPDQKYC

[5] = M. tuberculosis H37Rv growth inhibitors, H37Rv strain (AID 1626); type: functional
[6] = biological target: T2, Acyl-homoserine lactone acylase PvdQ (Pseudomonas aeruginosa (strain LESB58), UniProt Q9I194); assay: P. aeruginosa PvdQ acylase inhibitors, dose response, biochemical, fluorescence, plate reader and imaging, cherry-picks (AID 493231)
T2 sequence (Q9I194 whole entry): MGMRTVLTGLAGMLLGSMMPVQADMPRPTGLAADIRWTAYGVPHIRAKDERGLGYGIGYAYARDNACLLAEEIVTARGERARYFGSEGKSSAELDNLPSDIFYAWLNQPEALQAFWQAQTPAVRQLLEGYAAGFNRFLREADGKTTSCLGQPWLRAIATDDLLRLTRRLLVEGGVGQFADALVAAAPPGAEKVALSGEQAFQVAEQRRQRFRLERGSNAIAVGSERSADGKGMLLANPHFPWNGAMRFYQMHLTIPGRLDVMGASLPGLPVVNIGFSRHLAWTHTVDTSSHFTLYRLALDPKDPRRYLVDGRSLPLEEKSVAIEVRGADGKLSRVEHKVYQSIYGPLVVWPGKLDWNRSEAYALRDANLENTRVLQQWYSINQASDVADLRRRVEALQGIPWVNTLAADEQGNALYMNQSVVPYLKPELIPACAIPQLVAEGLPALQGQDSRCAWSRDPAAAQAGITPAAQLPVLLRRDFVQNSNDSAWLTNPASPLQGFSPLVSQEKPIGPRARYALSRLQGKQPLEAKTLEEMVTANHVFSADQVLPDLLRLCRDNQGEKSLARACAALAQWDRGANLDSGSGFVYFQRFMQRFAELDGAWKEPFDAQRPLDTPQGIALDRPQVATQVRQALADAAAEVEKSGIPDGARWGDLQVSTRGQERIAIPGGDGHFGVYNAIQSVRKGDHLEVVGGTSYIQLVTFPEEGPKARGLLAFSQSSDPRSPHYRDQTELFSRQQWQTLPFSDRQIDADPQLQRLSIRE

[7] = test system: Streptococcus sp. 'group A'; assay: growth inhibition of control SK(-) GAS strain, dose response, counter-screen for streptokinase expression inhibitor project, luminescence, kanamycin, BacTiterGlo, confirmation (AID 1900); type: functional, organism-based
[8] = cytotoxicity in HPDE-C7 cells, cell-based, fluorescence, HTS (AID 430); type: functional; conditions: Homo sapiens
[9] = cytotoxicity in KRAS-transformed pancreatic duct cells, primary screen, cell-based, fluorescence, HTS (AID 431); type: functional; conditions: Homo sapiens;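 also: cell line used: HPDE-C7K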
Streptococcus = assay: Group A Streptococcus viability loss, dose response, counter-screen for streptokinase expression inhibitor project, luminescence, BacTiterGlo (AID 1915); type: functional, organism-based;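 also: potency for reduction of bacterial viability or growth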
[10] = biological target: Heat shock protein HSP 90-alpha (Homo sapiens, UniProt P07900); type: functional, organism-based
[11] = A Cell Based Secondary Assay To Explore Cytotoxicity of Compounds that Sensitize Mycobacterium Tuberculosis to Beta-Lactam Antibiotics.; type: functional
[12] = biological target: G-protein coupled receptor 35 (Homo sapiens, UniProt Q9HC97); assay: GPR35 antagonists blocking zaprinast-driven arrestin recruitment, primary screen, imaging, U2OS, beta-arrestin-GFP, zaprinast agonist (AID 2058); type: functional;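 also: antagonist potency meaning inhibition of agonist-induced arrestin redistribution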
Streptokinase A = biological target: T3, Streptokinase A (Streptococcus pyogenes serotype M1, UniProt P10520); assay: S. pyogenes streptokinase expression inhibitors, potency, dose response, plasminogen activation absorbance, OD405 (AID 1914); type: functional, Streptococcus pyogenes M1 GAS;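 also: secreted streptokinase activity via plasminogen activation per viability signal from cell pellet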
T3 sequence (P10520 whole entry): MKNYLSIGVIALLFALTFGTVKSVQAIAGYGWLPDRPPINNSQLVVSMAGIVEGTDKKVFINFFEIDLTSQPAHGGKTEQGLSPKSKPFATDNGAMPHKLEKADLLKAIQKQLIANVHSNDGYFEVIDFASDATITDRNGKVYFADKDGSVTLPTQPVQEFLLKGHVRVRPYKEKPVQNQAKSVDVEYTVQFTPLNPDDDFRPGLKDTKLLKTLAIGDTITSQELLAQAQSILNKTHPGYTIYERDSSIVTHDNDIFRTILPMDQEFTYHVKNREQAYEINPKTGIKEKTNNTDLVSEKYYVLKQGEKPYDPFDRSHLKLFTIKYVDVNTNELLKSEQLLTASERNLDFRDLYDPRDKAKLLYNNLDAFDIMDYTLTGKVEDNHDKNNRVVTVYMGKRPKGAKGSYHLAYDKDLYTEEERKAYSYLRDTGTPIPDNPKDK

[13] = Luminescence Cell-Based Dose Retest to Confirm Inhibitors of Cancer Stem Cells. [Related pubchem assays (depositor defined):AID2717, AID2721]; type: functional; conditions: Homo sapiens
[14] = biological target: DNA dC->dU-editing enzyme APOBEC-3A (Homo sapiens, UniProt P31941); assay: APOBEC3A DNA deaminase inhibitors, dose response, biochemical (AID 504722); type: functional
Sequence of DNA dC->dU-editing enzyme APOBEC-3A (P31941 whole entry): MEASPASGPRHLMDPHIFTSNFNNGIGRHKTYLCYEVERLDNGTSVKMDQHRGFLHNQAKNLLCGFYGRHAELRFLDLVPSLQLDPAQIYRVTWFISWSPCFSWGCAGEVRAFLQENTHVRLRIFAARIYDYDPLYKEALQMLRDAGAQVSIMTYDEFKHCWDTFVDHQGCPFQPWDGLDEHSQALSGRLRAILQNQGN

[15] = biological target: DNA dC->dU-editing enzyme APOBEC-3G (Homo sapiens, UniProt Q9HC16); assay: Dose Response confirmation of small molecule APOBEC3G DNA Deaminase Inhibitors via a fluorescence-based single-stranded DNA deaminase assay. [Related pubchem assays (depositor defined):AID493012, AID493028]; type: functional
Sequence of DNA dC->dU-editing enzyme APOBEC-3G (Q9HC16 whole entry): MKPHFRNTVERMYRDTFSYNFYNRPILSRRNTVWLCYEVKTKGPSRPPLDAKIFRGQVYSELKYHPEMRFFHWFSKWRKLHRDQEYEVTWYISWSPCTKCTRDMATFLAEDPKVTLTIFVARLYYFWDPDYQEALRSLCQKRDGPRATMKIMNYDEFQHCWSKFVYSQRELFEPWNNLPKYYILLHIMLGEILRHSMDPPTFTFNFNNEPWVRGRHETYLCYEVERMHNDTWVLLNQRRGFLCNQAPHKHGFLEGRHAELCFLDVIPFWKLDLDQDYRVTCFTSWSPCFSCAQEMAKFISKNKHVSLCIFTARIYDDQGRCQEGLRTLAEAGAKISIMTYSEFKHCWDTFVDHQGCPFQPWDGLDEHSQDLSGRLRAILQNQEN

Cytochrome P450 2C19 = Cytochrome P450 2C19 (Homo sapiens, UniProt P33261); assay: Cytochrome panel assay with activity outcomes. Panel member name: p450-cyp2c19 Compounds with AC50 equal or less than 10 uM are considered active; type: functional; conditions: read-out: AC50
Sequence of Cytochrome P450 2C19 (P33261 whole entry): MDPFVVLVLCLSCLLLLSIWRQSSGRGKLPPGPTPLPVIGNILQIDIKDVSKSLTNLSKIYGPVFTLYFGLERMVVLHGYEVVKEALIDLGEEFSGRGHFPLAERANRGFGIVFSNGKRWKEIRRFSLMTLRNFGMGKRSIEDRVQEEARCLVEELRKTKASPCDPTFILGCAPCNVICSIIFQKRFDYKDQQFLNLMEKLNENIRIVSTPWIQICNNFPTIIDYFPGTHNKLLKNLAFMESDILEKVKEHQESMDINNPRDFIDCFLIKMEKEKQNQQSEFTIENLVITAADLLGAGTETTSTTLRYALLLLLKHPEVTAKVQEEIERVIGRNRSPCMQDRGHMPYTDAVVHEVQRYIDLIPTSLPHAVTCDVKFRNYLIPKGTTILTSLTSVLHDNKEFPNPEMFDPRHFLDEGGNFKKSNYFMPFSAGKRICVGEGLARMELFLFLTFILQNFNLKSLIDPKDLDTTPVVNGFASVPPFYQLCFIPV

Cytochrome P450 2C9 = Cytochrome P450 2C9 (Homo sapiens, UniProt P11712)

COc1ccc(NC(=O)CN2CCN(S(=O)(=O)c3ccc(C(C)C)cc3)CC2)cc1OC
EC50 [1]: > 10 µM (not active)

CCCCSc1nnc([C@H](C)NC(=O)OC(C)(C)C)o1
EC50 [2]: > 79.4 µM (not active)
EC50 [3]: > 79.4 µM (not active)
EC50 [4]: > 79.4 µM (not active)

CCc1c(C#N)c(N)nc(SCC(=O)OCc2ccccc2)c1C#N
IC50 [5]: > 100 µM (active)

CCC(C)NS(=O)(=O)c1ccc(OC)c(Cl)c1Cl (centres undefined)
AC50 [6]: 10 µM (active)

CCCOC(=O)c1ccc(Oc2c[nH]nc2-c2ccc(OC)cc2O)cc1
EC50 [7]: 8.73 µM (active)
EC50 [8]: 8.49 µM (active)
EC50 [9]: 6.14 µM (active)
EC50 (Streptococcus): 10.3 µM (active)
AC50 [10]: 7.97 µM (active)

O=C(Nc1ccccc1-c1ccccc1)C12CC3CC(CC(C3)C1)C2
CC50 [11]: > 40 µM (active)

NNc1nc2c(-c3ccc(F)cc3)nnn2c2ccccc12
EC50 [2]: > 79.4 µM (not active)
EC50 [3]: > 79.4 µM (not active)
EC50 [4]: > 79.4 µM (not active)

O=C(c1cc(COc2ccc(F)cc2Cl)on1)N1CCC(OCc2cccnc2)CC1
IC50 [5]: > 100 µM (active)

CC(NS(=O)(=O)OCC(Cl)(Cl)Cl)c1ccc(C(C)(C)C)cc1 (centres undefined)
IC50 [12]: 1.46 µM (active)
EC50 [7]: 4.61 µM (active)
EC50 (Streptokinase A): 4.06 µM (active)
EC50 (Streptococcus): 12.8 µM (active)
AC50 [13]: 2.77 µM (active)

CCn1c(SCC(=O)O)nnc1C1CCCCC1
EC50 [2]: > 79.4 µM (not active)
EC50 [3]: > 79.4 µM (not active)
EC50 [4]: > 79.4 µM (not active)

CCc1nnc(S)n1/N=C/c1c(O)ccc2ccccc12
IC50 [14]: > 100 µM (inactive)
IC50 [15]: 4 µM (active)

Cn1c(/C(C#N)=C(\O)c2ccc(S(=O)(=O)N3CCCCC3)cc2)nc2ccccc21
EC50 [1]: > 50 µM (not active)
AC50 (Cytochrome P450 2C19): 10 µM (inconclusive)
AC50 (Cytochrome P450 2C9): 0.316 µM (inconclusive)

From ChEMBL document CHEMBL1201862, “PubChem BioAssay data set” (2004)
